Experimental data: US10426815B2, “Prevention and treatment of itch with an MRGPR antagonist” (THE GENERAL HOSPITAL CORPORATION, priority 2015, dated 2019)
Entries after “also recorded” stand apart in the source; their conditions may differ. Each block holds one molecule with its values, some of them ahead of it.

Columns and labels:
MrgX2 (human MRGPRX2) = molecular target: T1, MrgX2 (human MRGPRX2) (Homo sapiens, UniProt Q96LB1); assay: Calcium imaging of cells transfected with the GPCR (Table 1); assay type: cell-based; conditions: for inhibition of SP-induced activation of human MRGPRX2: FIG. 6a: SP 500 nM, inhibitors 1 μM, FK888 10 μM
T1 construct: expressed in transfected cells; host or cells: HeLa cells, pcDNA3.1(-)
T1 sequence (Q96LB1 1-330): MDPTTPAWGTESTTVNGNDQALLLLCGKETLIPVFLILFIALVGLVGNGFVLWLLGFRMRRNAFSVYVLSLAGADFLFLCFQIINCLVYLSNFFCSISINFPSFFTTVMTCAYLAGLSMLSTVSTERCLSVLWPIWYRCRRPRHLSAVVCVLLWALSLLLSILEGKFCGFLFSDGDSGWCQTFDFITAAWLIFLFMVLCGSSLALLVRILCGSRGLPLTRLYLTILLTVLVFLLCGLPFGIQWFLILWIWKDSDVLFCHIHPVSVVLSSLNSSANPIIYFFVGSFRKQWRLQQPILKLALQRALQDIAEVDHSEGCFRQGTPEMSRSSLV
Experimental: human MRGPRX2 was isolated by PCR from human genomic DNA using the forward and reverse primers, […] (SEQ. ID. NO: 3) and […] (SEQ. ID. NO: 4), and cloned into pcDNA3.1(−). The mouse MrgprA1 cDNA expression clone was purchased from ORIGENE Technologies. The mouse MrgprB2 coding sequences were PCR-amplified from mouse genomic DNA using the primer pair, […] (SEQ. ID. NO: 5) and […] (SEQ. ID. NO: 6), and cloned into pcDNA3.1 (−).
(§1) 10 μg of expression vector (human MRGPRX2, mouse MrgprA1 or NK1) and 10 μl of LIPOFECTAMINE 2000 transfection reagent were diluted into 0.5 ml of DMEM and separately left at room temperature (RT) for 5 min. They were then mixed and incubated at RT for 20 minutes prior to being added to HeLa cells. HeLa cells were grown to confluence, trypsinized and 1×10^6 cells were pelleted in a 15 ml tube by centrifugation at 1000 rpm for 5 minutes. The DMEM-LIPOFECTAMINE 2000-DNA mixture (1 ml) was then added to the cell pellet, suspended and incubated at RT for 5 minutes. 2 ml of complete DMEM with 10% FBS without antibiotics were added to the tube, mixed by inverting the tube, plated into a 96-well glass bottom plate at 50,000 cells/well, and placed in a 37° C. CO2 incubator for 3 hours. HeLa cells transfected with salmon sperm DNA were plated as a control. The medium was changed after 3 hours and left in the incubator. 24 hours after transfection, the medium in the wells was removed and 100 μl of complete DMEM containing 2 μM of FURA-2 were added to each well and left at room temperature in the dark for 1 hr. Following loading with FURA-2, the medium was removed, washed with PBS and replaced with 90 μl of HEPES-buffered saline (20 mM HEPES, 115 mM NaCl, 5.4 mM KCl, 2 mM CaCl2, 0.8 mM MgCl2, 13.8 mM glucose, pH 7.4).
Calcium imaging was performed immediately after loading cells with Fura-2, using a ZEISS Axiovert 200M microscope platform equipped with a flipping filter wheel for ratiometric imaging. Axiovision software, version 4.6 was used for calcium image analysis of the cells excited at 340 nm and 380 nm. Agonists were added at 15 seconds after the start of the excitation procedure. Antagonists were added five minutes before imaging with the agonists. Images were taken every 5 seconds, including at zero time, during a 90 second period or longer if required. The software later analyzed all images taken during each excitation period. Ratiometric changes were measured in 10-20 cells in each individual experiment. An average of the fluorescence of the cells in each image was calculated and plotted against time in seconds.
Each of the concentration dependent readings was performed in triplicate. Maximum intensities at each of the dilutions were calculated and plotted against concentration using GraphPad Prism software. Error bars represent SEM.

Mrgprs = assay: Calcium imaging of transfected HeLa cells, statements on Mrgprs not named singly; assay type: cell-based; conditions: for inhibition of activation of Mrgprs by SP: FIG. 6a: cells pretreated with inhibitor 10 minutes
Experimental: as §1, with “They” for “10 μg of expression vector (human MRGPRX2, mouse MrgprA1 or NK1) and 10 μl of LIPOFECTAMINE 2000 transfection reagent were diluted into 0.5 ml of DMEM and separately left at room temperature (RT) for 5 min. They”, “7.4). Calcium imaging was performed immediately after loading cells with Fura-2, using a ZEISS Axiovert 200M microscope platform equipped with a flipping filter wheel for ratiometric imaging. Axiovision software, version 4.6 was used for calcium image analysis of the cells excited at 340 nm and 380 nm. Agonists were added at 15 seconds after the start of the excitation procedure. […] The software later analyzed all images taken during each excitation period. Ratiometric changes were measured in 10-20 cells in each individual experiment. An average of the fluorescence of the cells in each image was calculated and plotted against time in seconds.” for “7.4).”

[1] = system: mice (itch, scratching bouts); assay: Mouse cheek model, scratching bouts; assay type: in vivo; conditions: for effect on SP-provoked itch (scratching bouts): C57BL/6 (WT) mice, co-injected with SP intradermally into the cheek; for effect on SP-provoked itch (scratching bouts) / provocation of itch (scratching bouts) by the injected substance, WT mice: 10 μl; for provocation of itch (scratching bouts) by the injected substance, WT mice: intradermal injection into the cheek
Experimental: The mouse cheek model was used to evaluate scratching behavior in Mrgpr cluster Δ−/− and NK1−/− mice. Mice used for behavioral studies were 2 to 3 months old, 20-30 g. Mice were habituated for 30 minutes/day for 3 days prior and for 15 minutes on the day of the study. 10 μl of each compound were delivered by a 31G needle to the cheek. The mice were not shaved prior to injections to avoid irritation. All experiments were performed at consistent times during the day (9:00 am to 2:00 pm) and under the same conditions and in groups of at least 7 mice. The mice were videotaped in a soundproof environment minimize distraction. Recordings were scored for the number of scratching bouts that occur over 1 minute intervals during 25 minute observation periods and the investigator was not aware of the group allocation during scoring the study and behavioral analysis. A scratching bout was initiated by lifting of the hind paw to the area of injection, and ended by returning of the hind paw to the floor or to the mouth. […]
For behavioral studies, average numbers of scratching bouts were compared across groups using one-way ANOVA. Pair-wise comparisons were performed using student t test after correcting p values for multiple comparisons using the Bonferroni procedure. For DRG studies and mast cell degranulation studies, unpaired student t-test was used. Differences were considered to be statistically significant for P<0.05. Data analysis was performed using PRISM 6.

[2] = C57BL/6 mice, co-injected intradermally into the cheek, 10 μL, 500 μM of each substance

Molecule: C[C@@H](O[C@H]1OCCN(Cc2n[nH]c(=O)[nH]2)[C@H]1c1ccc(F)cc1)c1cc(C(F)(F)F)cc(C(F)(F)F)c1 [aprepitant]
inhibition of SP-induced activation of human MRGPRX2 (MrgX2 (human MRGPRX2)): did not impact
inhibition of activation of Mrgprs by SP (Mrgprs): did not impact; also recorded: do not inhibit

Molecule: SP: inflammatory undecapeptide neuropeptide of the tachykinin family, synthesized by GenScript
SP-provoked itch in NK1 knockout mice ([1]; cheek, intradermal, FIG. 5a: 10 μL SP 1 mM, compared to WT): induced itch; also recorded: provoked itch; also recorded: not decreased
SP-provoked itch in Mrgpr cluster knockout mice ([1]; cheek, intradermal, FIG. 5a: 10 μL SP 1 mM, compared to WT, listed as Substance P): does not provoke itch
provocation of itch (scratching bouts) by the injected substance, WT mice [1]: induced itch; also recorded: provoked itch
provocation of itch (scratching bouts) by the injected substance, WT mice ([1]; listed as Substance P): provokes itch

Molecule: FC(F)(F)c1cc(CO[C@H]2CCCN[C@H]2c2ccccc2)cc(C(F)(F)F)c1 [L-733060]
inhibition of SP-induced activation of human MRGPRX2 (MrgX2 (human MRGPRX2)): did not impact
inhibition of activation of Mrgprs by SP (Mrgprs): did not impact
inhibition of activation of Mrgprs by SP (Mrgprs; listed as L733060): do not inhibit
effect on SP-provoked itch (scratching bouts) ([1]; 500 μM of each substance): only minimally effective; also recorded: not effective
effect on SP-provoked itch (scratching bouts) ([1]; 500 μM of each substance, listed as L733060): does not significantly decrease and not and lack of significant blockade and does not

Second part, led by results:

inhibition of hMRGPRX2 activation by compound 48/80 (MrgX2 (human MRGPRX2)): inhibits
inhibition of human MRGPRX2 activation by atracurium and ciprofloxacin (MrgX2 (human MRGPRX2); FIG. 8a): antagonized; also recorded: inhibits
Molecule: Boc-Gln-D-Trp(Formyl)-Phe benzyl ester trifluoroacetate [QWF]
inhibition of SP-induced activation of human MRGPRX2 (MrgX2 (human MRGPRX2)): excellent inhibitor; also recorded: potent antagonist; also recorded: inhibits
inhibition of activation of Mrgprs by SP (Mrgprs): blocks
inhibition of activation of Mrgprs by compound 48/80 (Mrgprs; FIG. 7b: compound 48/80 1 μM, QWF 1 μM): antagonizes; also recorded: inhibits
effect on SP-provoked itch (scratching bouts) ([1]; 500 μM of each substance): significantly decreased; also recorded: decreased SP-induced itch to baseline; also recorded: decreased SP-provoked itch to baseline; also recorded: reduced to baseline
effect on SLIGRL-provoked itch (scratching bouts) [1, 2]: blocks; also recorded: reduced to baseline; also recorded: significantly decreased
effect on compound 48/80-provoked itch (scratching bouts) [1, 2]: blocks compound 48/80-induced itch to baseline; also recorded: blocks compound 48/80-provoked itch to baseline; also recorded: reduced to baseline; also recorded: significantly decreased

activation of human MRGPRX2 by the substance (in words) (MrgX2 (human MRGPRX2); NPFF 50 μM, capsaicin 3 μM, SP at nanomolar concentrations): activates
Molecule: SLIGRL: tethered hexapeptide ligand of mouse PAR2 (SEQ ID NO: 7)
provocation of itch (scratching bouts) by the injected substance, WT mice [1]: provoke itch
